Reference: the CombiSolv-Exp solvation set (Vermeire and Green 2021)

Test: solvent given as SMILES
[1] = in CCCCCCCCC=CCCCCCCCC(=O)OCC(COC(=O)CCCCCCCC=CCCCCCCCC)OC(=O)CCCCCCCC=CCCCCCCCC

Structure (SMILES): Cc1cc(C)c(C)cc1C
- solvation free energy, 298 K (in CC(C)(C)O): -6.62 kcal/mol
- solvation free energy, 298 K (in CC(C)CC(C)(C)C): -7.1 kcal/mol
- solvation free energy, 298 K (in CC(C)CC(C)O): -6.69 kcal/mol
- solvation free energy, 298 K (in CC(C)CCO): -6.63 kcal/mol
- solvation free energy, 298 K (in CC(C)CO): -6.52 kcal/mol
- solvation free energy, 298 K (in CC(C)O): -6.49 kcal/mol
- solvation free energy, 298 K (in CCC(C)O): -6.62 kcal/mol
- solvation free energy, 298 K (in CCCC(C)O): -6.69 kcal/mol
- solvation free energy, 298 K (in CCCCCC): -7.24 kcal/mol
- solvation free energy, 298 K (in CCCCCCC): -7.19 kcal/mol
- solvation free energy, 298 K (in CCCCCCCC): -7.14 kcal/mol
- solvation free energy, 298 K [1]: -7.13 kcal/mol
- solvation free energy, 298 K (in CCCCCCCCCC): -7.08 kcal/mol
- solvation free energy, 298 K (in CCCCCCCCCCO): -6.84 kcal/mol
- solvation free energy, 298 K (in CCCCCCCCO): -6.81 kcal/mol
- solvation free energy, 298 K (in CCCCCCCO): -6.78 kcal/mol
- solvation free energy, 298 K (in CCCCCCO): -6.75 kcal/mol
- solvation free energy, 298 K (in CCCCCO): -6.71 kcal/mol
- solvation free energy, 298 K (in CCCCO): -6.71 kcal/mol
- solvation free energy, 298 K (in CCCCOCCCC): -7.19 kcal/mol
- solvation free energy, 298 K (in CCCO): -6.54 kcal/mol
- solvation free energy, 298 K (in CCO): -6.44 kcal/mol
- solvation free energy, 298 K (in CCOCC): -7.34 kcal/mol
- solvation free energy, 298 K (in CO): -6.18 kcal/mol
- solvation free energy, 298 K (in O): -0.72 kcal/mol

Structure (SMILES): CCC(C)C(C)C (configuration not stated)
- solvation free energy, 298 K (in C=CCCCCCCCCCCCCCC): -3.97 kcal/mol
- solvation free energy, 298 K (in CC#N): -3.2 kcal/mol

Structure (SMILES): Clc1cc(Cl)c(Cl)c(Cl)c1Cl
- solvation free energy, 298 K [1]: -8.79 kcal/mol
- solvation free energy, 298 K (in CCCCCCCCO): -8.85 kcal/mol
- solvation free energy, 298 K (in O): -1.69 kcal/mol

Structure (SMILES): Clc1cccc(Cl)c1Cl
- solvation free energy, 298 K (in CCCCCC): -6.92 kcal/mol
- solvation free energy, 298 K [1]: -7.12 kcal/mol
- solvation free energy, 298 K (in CCCCCCCCO): -7.08 kcal/mol
- solvation free energy, 298 K (in O): -1.24 kcal/mol

Structure (SMILES): O=Cc1ccccc1
- solvation free energy, 298 K (in CCCCCC): -5.53 kcal/mol
- solvation free energy, 298 K (in CCCCCCC): -5.5 kcal/mol
- solvation free energy, 298 K (in CCCCCCCCCCCCCCCC): -5.37 kcal/mol
- solvation free energy, 298 K (in O): -4.02 kcal/mol

Structure (SMILES): CC(=O)CCCCC(C)C
- solvation free energy, 298 K (in NC=O): -5.09 kcal/mol
- solvation free energy, 298 K (in O): -2.84 kcal/mol

Structure (SMILES): O=C(O)c1cc(-c2ccc(F)cc2F)ccc1O
- solvation free energy, 298 K (in O): -9.4 kcal/mol

Structure (SMILES): CCCC(C)(C)C
- solvation free energy, 298 K (in C=CCCCCCCCCCCCCCC): -3.7 kcal/mol
- solvation free energy, 298 K (in CC#N): -2.7 kcal/mol
- solvation free energy, 298 K (in CN1CCCC1=O): -2.66 kcal/mol
- solvation free energy, 298 K (in O): 2.88 kcal/mol

Structure (SMILES): Cc1cccc2c(C)cccc12
- solvation free energy, 298 K [1]: -9.3 kcal/mol
- solvation free energy, 298 K (in O): -2.78 kcal/mol
